Eleven compounds from patent US20250282799A1, “SUBSTITUTED PYRIDO[4,3-d]PYRIMIDINES AS KRAS MODULATORS” (Alterome Therapeutics, Inc., priority 2023, published 2025) can be followed below.

pIC50: −log10 of the molar value.

The test system of the assay is KRAS G12V dependent lung adenocarcinoma cell line, NCI-H441. As to the kind of experiment: Cellular pERK (Thr202/Tyr204) FRET/HTRF assay. The class given is cell-based. An excerpt:
“Ras” refers to a protein in the Ras superfamily of small GTPases, such as in the Ras subfamily. […] The Ras proteins play a critical role in the regulation of cell behaviors, including proliferation, differentiation, and survival. […] KRAS G12V, G12D, and G12S variants are common in human cancers and Ras inhibitors binding in or near the Switch II pocket may provide mutant binding selectivity. RAS mutations are known to be often associated with pancreatic, colorectal and non-small-cell lung carcinomas (Lone, A. M. et al. J. Am. Chem. Soc. 2011,133, 11665-74, which is entirely incorporated herein by reference; Dillon, M. B.; Bachovchin, D. A.; Brown, S. J.; Finn, M. G.; Rosen, H.; Cravatt, B. F.; Mowen, K. A. ACS Chem. Biol. 2012, 7, 1198-204, which is entirely incorporated herein by reference; Bachovchin, D. A.; Brown, S. J.; Rosen, H.; Cravatt, B. F. Nat. Biotechnol. 2009, 27, 387-94, Ostrem, J. M.; Peters, U.; Sos, M. L.; Wells, J. A.; Shokat, K. M. Nature 2013, 503, 548-551. Ryan M. B. and Corcoran R. B, Nat. Rev Clin Onco. 2018, 11, 709-720.). Ras proteins are key members in the Ras/Raf/Mitogen-activated protein kinase (MAPK) signaling pathway. This pathway regulates a wide variety of cellular processes, including proliferation, differentiation, apoptosis, and stress responses. One way to measure the impact of an inhibitor of Ras proteins is to measure downstream phosphorylation of proteins in the MAPK pathway. The MAPK pathway includes extracellular signal-regulated kinases named ERK1 and ERK2, which are serine-threonine kinases that regulate cellular signaling under both normal and oncogenic conditions. ERK expression and hyperactivation via phosphorylation plays a major role in cancer progression and are downstream of Ras proteins. The assay used for measuring the downstream impact of Ras inhibition is the use of a highly sensitive cell-based readout of ERK phosphorylation (pERK) specifically on Threonine (Thr) 202 and Tyrosine (Tyr) 204 in a KRAS G12V dependent lung adenocarcinoma cell line, NCI-H441 (ATCC Cat #HTB-174). The assay described herein is suitable for assessing inhibition of Ras and can be tailored for any of the predominant oncogenic mutations in any isoform of Ras (e.g., KRAS, HRAS, and NRAS) by changing the cell line.
pERK was measured using an advanced pERK assay designed for the robust and highly sensitive quantification of ERK phosphorylation on Thr202/Tyr204. This assay is intended for the simple, rapid, and direct detection of endogenous levels of ERK1/2 in cells, but only when ERK is phosphorylated at Thr202 and Tyr204 (Perkin Elmer Catalog #64AERPEH). pERK was detected in a FRET based sandwich assay format using 2 different specific antibodies, one labelled with Eu3+-Cryptate (donor) and the second with d2 (acceptor). When the dyes are in close proximity, the excitation of the donor with a light source (laser or flash lamp) triggers a Fluorescence Resonance Energy Transfer (FRET) towards the acceptor, which in turn fluoresces at a specific wavelength (665 nm). The specific signal modulates positively in proportion to p-ERK1/2 (Thr202/Tyr204). The simple mix-and-read protocol eliminates all wash steps for faster analysis and high-quality output. Briefly, cells were diluted to the desired concentration per well based on a growth curve showing ˜75% confluence within a 24-hour time period at no less than 95% viability. Cell suspension (24 μL) were added into each well of 384-well culture plate and maintained in 37° C. 5% CO2 incubator overnight prior to assay. All compounds were transferred to stock plates using TECAN (EVO200) liquid handler using DMSO as the solubilizing and dilution agent. Test compounds were transferred onto adherent cells using an Echo655 liquid handler. DMSO was employed as negative control. Cells were incubated with test compounds for 1 hr in a 37° C., 5% CO2 incubator following compound addition. […]
(TR-FRET usually uses a lanthanide donor and a delayed reading to cut background.)

The mark [1] stands for this setting: Homo sapiens, NCI-H441, cellular pERK (Thr202/Tyr204) HTRF, NCI-H441 cells.
Setting [2] is: cellular pERK HTRF, NCI-H441 (KRAS G12V) cells.
[3] abbreviates: cellular pERK (Thr202/Tyr204) HTRF, NCI-H441 cells.

By pIC50 is commonly meant −log10 of the IC50, conventionally taken in molar units. As to `C=C1CN2CCC[C@@]2(COc2nc(N3CCOC[C@H]4[C@H](F)[C@H]43)c3cc(C(F)(F)F)c(-c4ccc(F)c5sc(N)c(C#N)c45)c(F)c3n2)C1` (atropisomer, axis not shown) [Example 432, 2-amino-7-fluoro-4-((S)-8-fluoro-4-((1S,7S,8S)-8-fluoro-5-oxa-2-azabicyclo[5.1.0]octan-2-yl)-2-(((S)-2-methylenetetrahydro-1H-pyrrolizin-7a(5H)-yl)methoxy)-6-(trifluoromethyl)quinazolin-7-yl)benzo[b]thiophene-3-carbonitrile], the pIC50 under setting [1] is more than 7.30. As to `C=C1CN2CCC[C@@]2(COc2nc(N3CCOC[C@H]4[C@H](F)[C@H]43)c3cc(C(F)(F)F)c(-c4ccc(F)c5sc(N)c(C#N)c45)c(F)c3n2)C1` (atropisomer, axis not shown) [Example 433, 2-amino-7-fluoro-4-((R)-8-fluoro-4-((1S,7S,8S)-8-fluoro-5-oxa-2-azabicyclo[5.1.0]octan-2-yl)-2-(((S)-2-methylenetetrahydro-1H-pyrrolizin-7a(5H)-yl)methoxy)-6-(trifluoromethyl)quinazolin-7-yl)benzo[b]thiophene-3-carbonitrile], the negative-log IC50 (pIC50) (Homo sapiens, NCI-H441, cellular pERK HTRF, NCI-H441 (KRAS G12V) cells) is 5.00 to 6.30. `N#Cc1c(N)sc2c(F)ccc(-c3c(C(F)(F)F)cc4c(N5CCOC[C@H]6[C@H](F)[C@H]65)nc(OC[C@@]56CCCN5CC(=C(F)F)C6)nc4c3F)c12` (atropisomer, axis not shown) [Example 438, 2-amino-4-((R)-2-(((S)-2-(difluoromethylene)tetrahydro-1H-pyrrolizin-7a(5H)-yl)methoxy)-8-fluoro-4-((1S,7S,8S)-8-fluoro-5-oxa-2-azabicyclo[5.1.0]octan-2-yl)-6-(trifluoromethyl)quinazolin-7-yl)-7-fluorobenzo[b]thiophene-3-carbonitrile]: under setting [2], the pIC50 is 5.00 to 6.30. On to `N#Cc1c(N)sc2c(F)ccc(-c3c(C(F)(F)F)cc4c(N5CCOC[C@H]6[C@H](F)[C@H]65)nc(OC[C@@]56CCCN5CC(=C(F)F)C6)nc4c3F)c12` (atropisomer, axis not shown) [Example 439, 2-amino-4-((S)-2-(((S)-2-(difluoromethylene)tetrahydro-1H-pyrrolizin-7a(5H)-yl)methoxy)-8-fluoro-4-((1S,7S,8S)-8-fluoro-5-oxa-2-azabicyclo[5.1.0]octan-2-yl)-6-(trifluoromethyl)quinazolin-7-yl)-7-fluorobenzo[b]thiophene-3-carbonitrile], for which the pIC50 under setting [2] is more than 7.30. The compound `[2H]C([2H])(Oc1nc(N2CCOC[C@H]3[C@H](F)[C@H]32)c2cc(C#N)c(-c3ccc(F)c4sc(N)c(C#N)c34)c(F)c2n1)[C@@]12CCCN1C[C@H](F)C2` (atropisomer, axis not shown; (aS)) [Example 349, (S)-7-(2-amino-3-cyano-7-fluorobenzo[b]thiophen-4-yl)-8-fluoro-4-((1S,7S,8S)-8-fluoro-5-oxa-2-azabicyclo[5.1.0]octan-2-yl)-2-(((2R,7aS)-2-fluorotetrahydro-1H-pyrrolizin-7a(5H)-yl)methoxy-d2)quinazoline-6-carbonitrile] showed a pIC50 under setting [3] of more than 7.30.

As for `[2H]C([2H])(Oc1nc(N2CCOC[C@H]3[C@H](F)[C@H]32)c2cc(C#N)c(-c3ccc(F)c4sc(N)c(C#N)c34)c(F)c2n1)[C@@]12CCCN1C[C@H](F)C2` (atropisomer, axis not shown; (aS)) [Example 351, (R)-7-(2-amino-3-cyano-7-fluorobenzo[b]thiophen-4-yl)-8-fluoro-4-((1S,7S,8S)-8-fluoro-5-oxa-2-azabicyclo[5.1.0]octan-2-yl)-2-(((2R,7aS)-2-fluorotetrahydro-1H-pyrrolizin-7a(5H)-yl)methoxy-d2)quinazoline-6-carbonitrile], the pIC50 under setting [3] is 5.00 to 6.30. As to `[2H]C([2H])(Oc1nc(N2CCOC[C@H]3[C@H](F)[C@H]32)c2cc(Cl)c(-c3ccc(F)c4sc(N)c(C#N)c34)c(F)c2n1)[C@@]12CCCN1C[C@H](F)C2` (atropisomer, axis not shown; (aS)) [Example 352, 2-amino-4-((S)-6-chloro-8-fluoro-4-((1S,7S,8S)-8-fluoro-5-oxa-2-azabicyclo[5.1.0]octan-2-yl)-2-(((2R,7aS)-2-fluorotetrahydro-1H-pyrrolizin-7a(5H)-yl)methoxy-d2)quinazolin-7-yl)-7-fluorobenzo[b]thiophene-3-carbonitrile], the pIC50 under setting [1] is 5.00 to 6.30. Consider `[2H]C([2H])(Oc1nc(N2CCOC[C@H]3[C@H](F)[C@H]32)c2cc(F)c(-c3ccc(F)c4sc(N)c(C#N)c34)c(F)c2n1)[C@@]12CCCN1C[C@H](F)C2` (atropisomer, axis not shown; (aS)) [Example 356, 2-amino-4-((R)-6,8-difluoro-4-((1S,7S,8S)-8-fluoro-5-oxa-2-azabicyclo[5.1.0]octan-2-yl)-2-(((2R,7aS)-2-fluorotetrahydro-1H-pyrrolizin-7a(5H)-yl)methoxy-d2)quinazolin-7-yl)-7-fluorobenzo[b]thiophene-3-carbonitrile], for which the negative logarithm of the IC50 (pIC50) under setting [3] was 5.00 to 6.30. The compound `[2H]C([2H])(Oc1nc(N2CCOC[C@H]3[C@H](F)[C@H]32)c2cc(F)c(-c3ccc(F)c4sc(N)c(C#N)c34)c(F)c2n1)[C@@]12CCCN1C[C@H](F)C2` (atropisomer, axis not shown; (aS)) [Example 357, 2-amino-4-((S)-6,8-difluoro-4-((1S,7S,8S)-8-fluoro-5-oxa-2-azabicyclo[5.1.0]octan-2-yl)-2-(((2R,7aS)-2-fluorotetrahydro-1H-pyrrolizin-7a(5H)-yl)methoxy-d2)quinazolin-7-yl)-7-fluorobenzo[b]thiophene-3-carbonitrile] showed a pIC50 under setting [3] of more than 7.30. The same measure, in the same setting: with `[2H]C([2H])(Oc1nc(N2CCOC[C@H]3[C@H](F)[C@H]32)c2cc(C#N)c(-c3cc(N)cc4ccc(F)c(C#C)c34)c(F)c2n1)[C@@]12CCCN1C[C@H](F)C2` (atropisomer, axis not shown; (aS)) [Example 358, (S)-7-(3-amino-8-ethynyl-7-fluoronaphthalen-1-yl)-8-fluoro-4-((1S,7S,8S)-8-fluoro-5-oxa-2-azabicyclo[5.1.0]octan-2-yl)-2-(((2R,7aS)-2-fluorotetrahydro-1H-pyrrolizin-7a(5H)-yl)methoxy-d2)quinazoline-6-carbonitrile] the figure was more than 7.30; with `[2H]C([2H])(Oc1nc(N2CCOC[C@H]3[C@H](F)[C@H]32)c2cc(Cl)c(-c3cc(N)cc4ccc(F)c(C#C)c34)c(F)c2n1)[C@@]12CCCN1C[C@H](F)C2` (atropisomer, axis not shown; (aS)) [Example 359, 4-((R)-6-chloro-8-fluoro-4-((1S,7S,8S)-8-fluoro-5-oxa-2-azabicyclo[5.1.0]octan-2-yl)-2-(((2R,7aS)-2-fluorotetrahydro-1H-pyrrolizin-7a(5H)-yl)methoxy-d2)quinazolin-7-yl)-5-ethynyl-6-fluoronaphthalen-2-amine], more than 7.30.
